Where only a bound is given, the exact number is not on record here.

As a reminder, the IC50 is the concentration that inhibits the measured activity by half.

In one test the test system is LN229 cells. The experiment in a line: Cell viability assay, LN229 cells. In kind it is cell-based, human. Conditions: Homo sapiens, LN-229, LN229 cells, read-out: Inhibition of Cancer Cell Growth (IC50). The method, then:
Each of the compounds was used to treat the cancer LN229 cells and examined first by western and dot blot assays for the degradation of SUMO1 protein and then by cell viability assay for the IC50 values of anticancer activity.
LN229 cell were treated with a series of dilutions of CPD1 and examined by cell viability assay for cell growth inhibition (FIG. 2B). […] Therefore, CPD1 acts as the degrader of SUMO1 protein and inhibitor of SUMO1 conjugation in cancer cells.
For the compound `O=C(Nc1ccc(Cl)c(Cl)c1)Nc1nc2ccc([N+](=O)[O-])cc2s1` [Compound 2], the IC50 is ≤ 5 µM.

Take `O=C(Nc1cccc([N+](=O)[O-])c1)Nc1nc2ccc(Cl)cc2s1` [Compound 4]: the IC50 was ≤ 5 µM.

With `O=C(Nc1ccc([N+](=O)[O-])cc1)Nc1nc2ccc(Cl)cc2s1` [Compound 6], the IC50 is ≤ 5 µM.

In the case of `O=C(Nc1ccc(Cl)cc1)Nc1nc2ccccc2s1` [Compound 7], the IC50 was > 20 µM.

For `O=C(Nc1nc2ccccc2s1)Nc1ccccc1Cl` [Compound 8], the IC50 is > 20 µM.

With `O=C(Nc1nc2ccccc2s1)Nc1ccc([N+](=O)[O-])cc1Cl` [Compound 9], the IC50 was > 20 µM.

With `O=C(Nc1cccc([N+](=O)[O-])c1)Nc1nc2ccc(F)cc2s1` [Compound 10], the IC50 is ≤ 5 µM.

Regarding `O=C(Nc1ccccc1)Nc1nc2ccccc2s1` [Compound 11], the half-maximal inhibitory concentration (IC50) is > 20 µM.

As for `O=C(Nc1cccc([N+](=O)[O-])c1)Nc1nc2c(Cl)cccc2s1` [Compound 12], the IC50 is ≤ 20 µM.

As to `N#Cc1ccc(NC(=O)Nc2nc3ccc(C(F)(F)F)cc3s2)cc1C#N` [Compound 13], the IC50 is > 20 µM.

With `O=C(Nc1nc2ccc([N+](=O)[O-])cc2s1)Nc1c(Cl)cccc1Cl` [Compound 14], the IC50 is ≤ 20 µM.

Regarding `O=C(Nc1ccc(Cl)cc1)Nc1nc2cccc([N+](=O)[O-])c2s1` [Compound 15], the IC50 is > 20 µM.

As for `O=C(Nc1nc2cccc([N+](=O)[O-])c2s1)Nc1ccc(Cl)cc1F` [Compound 16], the IC50 was > 20 µM.

For `O=C(Nc1ccc(F)c([N+](=O)[O-])c1)Nc1nc2c(Cl)cccc2s1` [Compound 17], the IC50 was > 20 µM.

Take `CS(=O)(=O)c1ccc2nc(NC(=O)Nc3cccc(Cl)c3)sc2c1` [Compound 20]: the IC50 was > 20 µM.

In the case of `O=C(Nc1cccc(Cl)c1)Nc1nc2ccc(Br)cc2s1` [Compound 21], the IC50 is > 20 µM.

For the compound `Cc1nc2ccc(NC(=O)Nc3cccc([N+](=O)[O-])c3)cc2s1` [Compound 22], the IC50 was ≤ 20 µM.

`N#Cc1ccc2nc(NC(=O)Nc3cccc([N+](=O)[O-])c3)sc2c1` [Compound 23]: the IC50 was ≤ 5 µM.

As to `O=C(Nc1nc2ccc([N+](=O)[O-])cc2s1)c1ccc(F)cc1` [Compound 25], the IC50 was > 20 µM.

`O=C(Cc1ccc(Cl)cc1)Nc1nc2ccc([N+](=O)[O-])cc2s1` [Compound 26, 2-(4-chlorophenyl)-N-(6-nitro-1,3-benzothiazol-2-yl)acetamide]: the IC50 was ≤ 20 µM.

Take `O=C(Nc1cccc(C(=O)O)c1)Nc1nc2ccc([N+](=O)[O-])cc2s1` [Compound 27]: the IC50 is > 20 µM.

For the compound `COC(=O)c1ccc2nc(NC(=O)Nc3cccc([N+](=O)[O-])c3)sc2c1` [Compound 28], the IC50 is ≤ 20 µM.

On to `O=C1N(c2cccc(Cl)c2)CCCN1c1nc2ccc([N+](=O)[O-])cc2s1` [Compound 29], for which the IC50 was > 20 µM.

Consider `N#Cc1ccc2nc(NC(=O)Nc3cccc(Br)c3)sc2c1` [Compound 31, 1-(3-bromophenyl)-3-(6-cyano-1,3-benzothiazol-2-yl)urea], for which the IC50 was ≤ 5 µM.

`N#Cc1ccc2nc(NC(=O)Nc3cccc(-c4ccc(F)cc4)c3)sc2c1` [Compound 32, 1-(6-cyano-1,3-benzothiazol-2-yl)-3-[3-(4-fluorophenyl)phenyl]urea]: the IC50 was ≤ 5 µM.

With `COc1ccc(-c2cccc(NC(=O)Nc3nc4ccc(C#N)cc4s3)c2)cc1` [Compound 33], the IC50 is ≤ 5 µM.

As to `Cc1ccc(-c2cccc(NC(=O)Nc3nc4ccc(C#N)cc4s3)c2)cc1` [Compound 34], the IC50 was ≤ 5 µM.

With `Cc1ccc(NC(=O)Nc2nc3ccc(C#N)cc3s2)nc1` [Compound 35], the IC50 was > 20 µM.

Take `N#Cc1ccc2nc(NC(=O)Nc3ccc(Br)cc3)sc2c1` [Compound 36]: the IC50 is ≤ 5 µM.

With `N#Cc1ccc2nc(NC(=O)Nc3cc(Cl)cc(Cl)c3)sc2c1` [Compound 37], the IC50 is ≤ 5 µM.

`COc1cccc(NC(=O)Nc2nc3ccc(C#N)cc3s2)c1` [Compound 38]: the IC50 was ≤ 5 µM.

In the case of `CC(C)(C)c1ccc(NC(=O)Nc2nc3ccc(C#N)cc3s2)cc1` [Compound 40], the IC50 was > 20 µM.

For the compound `N#Cc1ccc2nc(NC(=O)Nc3ccc(Cl)c(Cl)c3)sc2c1` [Compound 41], the IC50 is ≤ 5 µM.

Turning to `N#Cc1cccc(NC(=O)Nc2nc3ccc(Cl)cc3s2)c1` [Compound 42], the half-maximal inhibitory concentration (IC50) is ≤ 5 µM.

For the compound `COc1ccc2nc(NC(=O)Nc3cccc(C#N)c3)sc2c1` [Compound 43], the IC50 was ≤ 20 µM.

Take `Cc1ccc2nc(NC(=O)Nc3cccc(C#N)c3)sc2c1` [Compound 44]: the IC50 is > 20 µM.

In the case of `N#Cc1ccc2nc(NC(=O)Nc3ccccc3)sc2c1` [Compound 45], the IC50 is ≤ 5 µM.

`N#Cc1cccc(NC(=O)NC2Cc3ccccc3C2)c1` [Compound 46]: the IC50 was > 20 µM.

Take `N#Cc1cccc(NC(=O)N2CCc3ccccc3C2)c1` [Compound 47]: the IC50 is > 20 µM.

Turning to `N#Cc1cccc(NC(=O)Nc2nc3ccccc3s2)c1` [Compound 48], the half-maximal inhibitory concentration (IC50) is ≤ 20 µM.

For `CC(C)(C)OC(=O)N1CCc2nc(NC(=O)Nc3cccc(C#N)c3)sc2C1` [Compound 49], the IC50 is ≤ 20 µM.

For the compound `N#Cc1cccc(NC(=O)Nc2nc3c(s2)CNCC3)c1` [Compound 50], the IC50 is ≤ 20 µM.

Take `N#Cc1ccc2nc(NC(=O)Nc3ccccc3C(F)(F)F)sc2c1` [Compound 51]: the IC50 is ≤ 20 µM.

`CN1CCc2nc(NC(=O)Nc3cccc(C#N)c3)sc2C1` [Compound 52]: the 50% inhibitory concentration (IC50) was > 20 µM.

For the compound `CCOC(=O)c1ccc2nc(NC(=O)Nc3cccc(C#N)c3)sc2c1` [Compound 53], the IC50 was ≤ 5 µM.

On to `CC(C(=O)Nc1nc2ccc(C#N)cc2s1)c1ccccc1` (stereo not shown) [Compound 54], for which the IC50 is > 20 µM.

`Cc1ccc(C(C)C(=O)Nc2nc3ccc(C#N)cc3s2)cc1` (stereo not shown) [Compound 55]: the IC50 is ≤ 20 µM.

Take `CC(C)(C(=O)Nc1nc2ccc(C#N)cc2s1)c1ccccc1` [Compound 56]: the IC50 is > 20 µM.

`N#Cc1ccc2nc(NC(=O)C3(c4ccccc4)CC3)sc2c1` [Compound 57]: the IC50 was > 20 µM.

With `N#Cc1cccc(NC(=O)Nc2nc3c(s2)COCC3)c1` [Compound 58], the IC50 is ≤ 20 µM.

In the case of `N#Cc1cccc(NC(=O)Nc2nc3c(s2)CCCC3)c1` [Compound 59], the half-maximal inhibitory concentration (IC50) was ≤ 20 µM.

For `N#Cc1cccc(NC(=O)Nc2nc3ccc(C(=O)N4CCOCC4)cc3s2)c1` [Compound 60], the IC50 is > 20 µM.

For `CC(C)(C)OC(=O)NC1CCc2nc(NC(=O)Nc3cccc(C#N)c3)sc2C1` (stereo not shown) [Compound 61], the IC50 is ≤ 5 µM.

`CC(C)(C)OC(=O)N[C@@H]1CCc2nc(NC(=O)Nc3cccc(C#N)c3)sc2C1` [Compound 62]: the IC50 was ≤ 5 µM.

For the compound `CC(C)(C)OC(=O)N[C@H]1CCc2nc(NC(=O)Nc3cccc(C#N)c3)sc2C1` [Compound 63], the IC50 was ≤ 20 µM.

As to `CN(C)C(=O)c1ccc2nc(NC(=O)Nc3cccc(C#N)c3)sc2c1` [Compound 64], the IC50 is > 20 µM.

With `CC(=O)N1CCc2nc(NC(=O)Nc3cccc(C#N)c3)sc2C1` [Compound 65], the IC50 is > 20 µM.

For `N#Cc1cccc(NC(=O)Nc2nc3ccc(C#N)cc3s2)c1` [Compound 66], the IC50 is ≤ 5 µM.

Take `N#Cc1cccc(NC(=O)Nc2nc3c(s2)CC(N)CC3)c1` (stereo not shown) [Compound 67]: the IC50 was ≤ 20 µM.

With `COc1cccc(NC(=O)Nc2nc3ccc(C#N)cc3s2)n1` [Compound 68], the IC50 is > 20 µM.

Take `CN(C)C1CCc2nc(NC(=O)Nc3cccc(C#N)c3)sc2C1` (stereo not shown) [Compound 69]: the IC50 was ≤ 20 µM.

As to `N#Cc1cccc(NC(=O)Nc2nc3ccc(F)cc3s2)c1` [Compound 70], the IC50 was ≤ 5 µM.

Consider `COc1cc(NC(=O)Nc2nc3ccc(C#N)cc3s2)ccn1` [Compound 71], for which the IC50 was ≤ 5 µM.

Consider `N#Cc1cccc(NC(=O)Nc2nc3ccc([N+](=O)[O-])cc3s2)c1` [Compound 72], for which the IC50 is ≤ 5 µM.

For `N#Cc1ccc2nc(NC(=O)NCc3ccccc3)sc2c1` [Compound 73], the IC50 is ≤ 20 µM.

For the compound `N#Cc1cccc(NC(=O)Nc2nc3ccc(Br)cc3s2)c1` [Compound 74], the IC50 was ≤ 5 µM.

As to `CC(=O)Nc1ccc2nc(NC(=O)Nc3cccc(C#N)c3)sc2c1` [Compound 75], the IC50 was > 20 µM.

On to `CN(C(=O)Nc1nc2ccc(C#N)cc2s1)c1ccccc1` [Compound 76], for which the IC50 was > 20 µM.

In the case of `N#Cc1cccc(NC(=O)Nc2nc3ccc(N)cc3s2)c1` [Compound 77], the IC50 was > 20 µM.

On to `CCOC(=O)C1CCc2nc(NC(=O)Nc3cccc(C#N)c3)sc2C1` (stereo not shown) [Compound 79], for which the IC50 is > 20 µM.

In the case of `CCOC(=O)C1CCc2nc(NC(=O)Nc3cccc(Cl)c3)sc2C1` (stereo not shown) [Compound 80], the IC50 was > 20 µM.

For `COc1cncc(NC(=O)Nc2nc3ccc(C#N)cc3s2)c1` [Compound 81], the IC50 is > 20 µM.

In the case of `N#Cc1ccc2nc(NC(=O)Nc3cccc(N4CCOCC4)c3)sc2c1` [Compound 82], the concentration for half-maximal inhibition (IC50) was ≤ 20 µM.

In the case of `CN1CCN(c2cccc(NC(=O)Nc3nc4ccc(C#N)cc4s3)c2)CC1` [Compound 83], the IC50 was ≤ 5 µM.

Staying with this test, now noted: LN229 cells, read-out: Inhibition of Cancer Cell Growth (IC50).
Take `O=C(Nc1cccc(Cl)c1)Nc1nc2ccc([N+](=O)[O-])cc2s1` [Compound 3]: the IC50 was ≤ 5 µM.

Regarding `O=C(Nc1ccc(Cl)cc1)Nc1nc2ccc([N+](=O)[O-])cc2s1` [Compound 5], the IC50 is ≤ 5 µM.

In the case of `O=C(Nc1ccc(Cl)cc1)Nc1nc2ccc([N+](=O)[O-])cc2s1` [Compound 18], the IC50 is > 20 µM.

On to `O=C(Nc1cccc(Cl)c1)Nc1nc2ccc([N+](=O)[O-])cc2s1` [Compound 19], for which the IC50 was > 20 µM.

Consider `CCc1ccc(NC(=O)Nc2nc3ccc(C#N)cc3s2)cc1` [Compound 39], for which the IC50 is ≤ 5 µM.

Source of the values: patent US11731985B2, “Compositions and methods for treating cancer” (Hb Therapeutics Inc., priority 2018, dated 2023).
